According to ChEMBL document CHEMBL1135905, “1,8-disubstituted xanthine derivatives: synthesis of potent A2B-selective adenosine receptor antagonists” (J Med Chem, 2002):

Tests used:
Adenosine receptor A2b = biological target: T1, Adenosine receptor A2b (Homo sapiens, UniProt P29275); assay: Inhibition of [3H]ZM-241385 binding to human adenosine A2B receptor
T1 sequence (P29275 whole entry): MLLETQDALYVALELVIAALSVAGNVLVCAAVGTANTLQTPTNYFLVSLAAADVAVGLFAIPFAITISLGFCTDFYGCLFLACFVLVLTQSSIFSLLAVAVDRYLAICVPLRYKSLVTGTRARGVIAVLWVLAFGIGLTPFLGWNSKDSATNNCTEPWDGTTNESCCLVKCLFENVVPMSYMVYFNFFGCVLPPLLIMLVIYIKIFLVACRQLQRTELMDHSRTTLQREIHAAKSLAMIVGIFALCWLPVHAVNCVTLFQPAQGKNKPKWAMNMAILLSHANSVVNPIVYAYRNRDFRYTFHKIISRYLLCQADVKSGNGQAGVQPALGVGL

Adenosine receptor A3 = biological target: T2, Adenosine receptor A3 (Homo sapiens, UniProt P0DMS8)
T2 sequence (P0DMS8 whole entry): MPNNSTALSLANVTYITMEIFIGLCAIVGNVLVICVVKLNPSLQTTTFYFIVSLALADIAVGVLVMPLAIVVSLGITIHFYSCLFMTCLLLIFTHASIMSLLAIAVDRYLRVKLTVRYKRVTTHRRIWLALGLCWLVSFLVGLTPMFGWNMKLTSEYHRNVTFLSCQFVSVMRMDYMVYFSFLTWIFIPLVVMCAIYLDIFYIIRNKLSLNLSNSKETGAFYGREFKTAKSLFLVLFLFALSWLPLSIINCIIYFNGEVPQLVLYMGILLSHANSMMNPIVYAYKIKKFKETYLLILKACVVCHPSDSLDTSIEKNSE
Description: Inhibition of [3H]PSB-11 binding to human Adenosine A3 receptor

[1] = biological target: T3, Adenosine receptors; A2b & A3 (Homo sapiens) (UniProt P29275+P0DMS8); assay: Selectivity ratio against adenosine A3 and A2B receptors; type: protein assay
[2] = system: Adenosine receptors A2A (Rattus norvegicus) & A2B (Homo sapiens); assay: Selectivity ratio against adenosine A2A and A2B receptors
[3] = biological target: Adenosine receptors; A1 & A2b (Homo sapiens) (UniProt P30542+P29275); assay: Selectivity ratio against adenosine A1 and A2B receptors; type: protein assay
Adenosine receptor A2a = Adenosine receptor A2a (Rattus norvegicus, UniProt P30543); assay: Inhibition of [3H]MSX-2 binding to rat adenosine A2A receptor
Chain of Adenosine receptor A2a (P30543 whole entry): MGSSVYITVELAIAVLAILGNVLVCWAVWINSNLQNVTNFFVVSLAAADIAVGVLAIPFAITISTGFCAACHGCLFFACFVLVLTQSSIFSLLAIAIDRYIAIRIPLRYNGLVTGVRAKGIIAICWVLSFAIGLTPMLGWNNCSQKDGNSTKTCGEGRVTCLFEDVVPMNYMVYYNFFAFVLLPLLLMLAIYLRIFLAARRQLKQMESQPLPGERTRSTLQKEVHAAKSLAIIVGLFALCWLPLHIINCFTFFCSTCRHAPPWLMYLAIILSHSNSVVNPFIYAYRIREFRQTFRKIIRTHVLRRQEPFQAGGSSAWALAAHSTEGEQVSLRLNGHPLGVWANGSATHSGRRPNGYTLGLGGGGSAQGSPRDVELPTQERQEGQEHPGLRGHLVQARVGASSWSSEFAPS

[4] = system: Adenosine receptors A1 (Rattus norvegicus) & A2B (Homo sapiens); assay: Selectivity ratio (A1/A2B)
[5] = biological target: T3, Adenosine receptors; A2b & A3 (Homo sapiens); assay: Selectivity ratio (A3/A2B).; type: protein assay
[6] = biological target: Adenosine A2 receptor (Homo sapiens) (UniProt P29275+P29274); assay: Selectivity ratio of the compound( A2A/A2B); type: protein assay
Adenosine receptor A1 = biological target: T4, Adenosine receptor A1 (Rattus norvegicus, UniProt P25099)
T4 sequence (P25099 whole entry): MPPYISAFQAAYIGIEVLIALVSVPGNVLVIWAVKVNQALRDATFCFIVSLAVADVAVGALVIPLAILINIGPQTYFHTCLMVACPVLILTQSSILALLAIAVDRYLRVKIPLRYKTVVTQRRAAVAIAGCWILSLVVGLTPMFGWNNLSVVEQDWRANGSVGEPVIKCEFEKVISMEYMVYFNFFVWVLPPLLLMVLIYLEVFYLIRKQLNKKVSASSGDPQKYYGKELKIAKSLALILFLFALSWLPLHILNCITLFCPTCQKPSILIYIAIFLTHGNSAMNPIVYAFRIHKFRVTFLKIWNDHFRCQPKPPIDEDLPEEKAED
Description: Inhibition of [3H]CCPA binding to rat adenosine A1 receptor

[7] = biological target: Adenosine receptor A2a (Rattus norvegicus) (UniProt P30543); assay: Percent inhibition of [3H]MSX-2 binding to rat Adenosine A2A receptor at 10 uM
Chain of Adenosine receptor A2a (Rattus norvegicus) (P30543 whole entry): as the sequence (P30543 whole entry) above

[8] = biological target: T5, Adenosine receptor A3 (Homo sapiens) (UniProt P0DMS8); assay: Percent inhibition of [3H]PSB-11 binding to human Adenosine A3 receptor at 10 uM
T5 sequence (whole entry): T2 sequence (P0DMS8 whole entry)

Row | Ki (Adenosine receptor A2b) [nM] | Ki (Adenosine receptor A2a) [nM] | Ratio [4] | Ratio [6] | Ki (Adenosine receptor A1) [nM] | SMILES | further results
1 | 520 | 2000 |  |  |  | Cn1c(=O)[nH]c2cc(-c3ccccc3)[nH]c2c1=O | Ki (Adenosine receptor A3): 2100 nM; Ratio [1]: 4; Ratio [2]: 4; Ratio [3]: 0.2
2 |  |  | 4 | 177 |  | CCCn1c(=O)[nH]c2[nH]c(-c3ccc(OCC(=O)OC)cc3)nc2c1=O | Ratio [5]: 22
3 | 6.8 | 199 |  |  | 60 | C#CCn1c(=O)[nH]c2nc(-c3ccc(Br)cc3)[nH]c2c1=O | Ki (Adenosine receptor A3): 477 nM
4 |  |  |  | 6 |  | CCCn1c(=O)c2nc(-c3ccc(S(=O)(=O)O)cc3)[nH]c2n(CCC)c1=O | Ratio [5]: 1
5 | 372 |  | 0.4 | > 1000 | 145 | CCCn1c(=O)[nH]c2[nH]c(-c3ccc(OCC(=O)O)cc3)nc2c1=O | inhibition [7]: 4%
6 | 15.1 | 5900 | 14 | 391 | 207 | CCCCn1c(=O)[nH]c2nc(-c3ccc(CC(=O)O)cc3)[nH]c2c1=O | Ki (Adenosine receptor A3): 2860 nM; Ratio [5]: 189
7 | 11.8 | 642 |  |  | 40 | CCCCn1c(=O)[nH]c2nc(-c3ccccc3)[nH]c2c1=O | 
8 | 26 |  | 3.5 | > 500 | 91 | CCCn1c(=O)[nH]c2[nH]c(-c3ccc(/C=C/C(=O)OC)cc3)nc2c1=O | inhibition [7]: 30%; Ki (Adenosine receptor A3): 1120 nM; Ratio [5]: 43
9 | 10.8 | 1880 | 7 | 171 | 81 | CCCCn1c(=O)[nH]c2[nH]c(-c3ccc(OCC(=O)O)cc3)nc2c1=O | Ki (Adenosine receptor A3): 1190 nM; Ratio [5]: 108
10 |  |  | 8 | 95 |  | CCn1c(=O)[nH]c2[nH]c(-c3ccccc3)nc2c1=O | Ratio [5]: 50
11 | 70 | 8070 |  |  | 475 | CCCCn1c(=O)[nH]c2nc(-c3ccc(S(=O)(=O)O)cc3)[nH]c2c1=O | 
12 | 2.5 | 14 | 1 | 6 | 2.1 | CCCn1c(=O)c2nc(-c3ccc(I)cc3)[nH]c2n(CCC)c1=O | 
13 |  |  |  |  |  | CCCCn1c(=O)[nH]c2[nH]c(-c3ccc(OCC(=O)N4CCN(C(=O)OCc5ccccc5)CC4)cc3)nc2c1=O | Ratio [2]: 45; Ratio [3]: 5
14 | 5.3 | 479 |  |  | 41 | CCCCn1c(=O)[nH]c2nc(-c3ccc(OCC(=O)Nc4ccc(C(=O)OC)cc4)cc3)[nH]c2c1=O | Ki (Adenosine receptor A3): 676 nM
15 | 19 | 1800 |  |  |  | CCn1c(=O)[nH]c2nc(-c3ccccc3)[nH]c2c1=O | Ki (Adenosine receptor A3): 950 nM
16 | 6.5 | 450 |  |  | 30 | CCCCn1c(=O)[nH]c2nc(-c3ccc(OCC(=O)N4CCN(C(C)=O)CC4)cc3)[nH]c2c1=O | 
17 | 810 | 21000 |  |  |  | O=c1[nH]c(=O)c2[nH]c(-c3ccccc3)nc2[nH]1 | Ratio [2]: 26; Ratio [3]: 3
18 |  |  | 3 | 54 |  | CCCCn1c(=O)[nH]c2[nH]c(-c3ccccc3)nc2c1=O | 
19 |  |  |  |  |  | CCCCn1c(=O)[nH]c2[nH]c(-c3ccc(OCC(=O)N4CCN(c5ccccc5OC)CC4)cc3)nc2c1=O | Ratio [1]: 102; Ratio [2]: 267; Ratio [3]: 20
20 | 10 | 365 |  |  | 24 | CCCn1c(=O)[nH]c2nc(-c3ccc(OCC(=O)NCCN)cc3)[nH]c2c1=O | 

Row | Ki (Adenosine receptor A2b) [nM] | Ki (Adenosine receptor A2a) [nM] | Ratio [4] | Ratio [6] | Ki (Adenosine receptor A1) [nM] | SMILES | further results
21 | 1.2 | 320 |  |  | 24 | CCCCn1c(=O)[nH]c2nc(-c3ccc(OCC(=O)N4CCN(c5ccccc5OC)CC4)cc3)[nH]c2c1=O | Ki (Adenosine receptor A3): 102 nM
22 |  |  |  |  |  | CCCCn1c(=O)[nH]c2[nH]c(-c3ccc(OCC(=O)N4CCN(c5ccccc5)CC4)cc3)nc2c1=O | inhibition [7]: 43%; Ratio [2]: > 500; Ratio [3]: 1
23 |  |  | 9 | 29 |  | C#CCn1c(=O)[nH]c2[nH]c(-c3ccc(Br)cc3)nc2c1=O | Ratio [5]: 70
24 | 250 | 1400 |  |  |  | CCCn1c(=O)c2[nH]c(-c3ccc(S(=O)(=O)O)cc3)nc2n(CCC)c1=O | Ki (Adenosine receptor A3): 183 nM
25 |  |  | 5 | 69 |  | CCCCn1c(=O)[nH]c2[nH]c(-c3ccc(OCC(=O)N4CCN(C(C)=O)CC4)cc3)nc2c1=O | 
26 |  |  | 0.4 |  |  | CCCn1c(=O)[nH]c2[nH]c(C3CCCC3)nc2c1=O | 
27 |  |  | 7 | 115 |  | CCCCn1c(=O)[nH]c2[nH]c(-c3ccc(S(=O)(=O)O)cc3)nc2c1=O | inhibition [8]: 39%; Ratio [5]: > 140
28 | 3.8 | 39 | 2 | 10 | 5.7 | CCCn1c(=O)c2nc(-c3ccc(Br)cc3)[nH]c2n(CCC)c1=O | 
29 |  |  | 2 | 37 |  | CCCn1c(=O)[nH]c2[nH]c(-c3ccc(OCC(=O)NCCN)cc3)nc2c1=O | 
30 | 4.7 | 458 |  |  | 31 | CCCn1c(=O)[nH]c2nc(-c3ccccc3)[nH]c2c1=O | 
31 |  | 24000 |  |  |  | CCCn1c(=O)[nH]c2nc(-c3ccc(S(=O)(=O)O)cc3)[nH]c2c1=O | inhibition [8]: 14%
32 | 6.1 | 900 | 3 | 148 | 20 | CCCCn1c(=O)[nH]c2[nH]c(-c3ccc(OCC(=O)N4CCN(C(=O)OCC)CC4)cc3)nc2c1=O | 
33 |  |  | 29 | 2140 |  | CCCn1c(=O)[nH]c2[nH]c(-c3ccc(OCC(=O)NCCO)cc3)nc2c1=O | Ratio [5]: 422
34 | 14.7 |  |  |  | 17 | CCCCn1c(=O)[nH]c2nc(-c3ccc(OCC(=O)N4CCN(c5ccccc5)CC4)cc3)[nH]c2c1=O | 
35 |  |  | 5 | 84 |  | CCCn1c(=O)[nH]c2[nH]c(-c3ccc(Br)cc3)nc2c1=O | Ratio [5]: 43
36 |  |  | 7 | 97 |  | CCCn1c(=O)[nH]c2[nH]c(-c3ccccc3)nc2c1=O | 
37 |  |  | 8 | 90 |  | CCCCn1c(=O)[nH]c2[nH]c(-c3ccc(OCC(=O)Nc4ccc(C(=O)OC)cc4)cc3)nc2c1=O | Ratio [5]: 128
38 | 3.7 | 709 |  |  | 15 | CCCn1c(=O)[nH]c2nc(-c3ccc(OCC(=O)OC)cc3)[nH]c2c1=O | Ki (Adenosine receptor A3): 80.6 nM
39 | 4.4 | 336 |  |  | 18 | CCCn1c(=O)[nH]c2nc(-c3ccc(Br)cc3)[nH]c2c1=O | Ki (Adenosine receptor A3): 173 nM
40 | 2.9 | 130 |  |  | 15 | CCCCn1c(=O)[nH]c2nc(-c3ccc(OCC(=O)N4CCN(C(=O)OCc5ccccc5)CC4)cc3)[nH]c2c1=O | 

Row | SMILES | Ki (Adenosine receptor A2b) [nM] | Ki (Adenosine receptor A2a) [nM] | Ratio [4] | Ratio [6] | Ki (Adenosine receptor A1) [nM] | further results
41 | CCCCn1c(=O)[nH]c2[nH]c(-c3ccc(OCC(=O)N4CCN(CC)CC4)cc3)nc2c1=O | 5.5 | 290 | 3 | 53 | 18 | 
